Assay results published in patent US5854407A, “15-hydroxy 6,9-hemiacetal erythromycin compounds” (Takeda Chemical Corporation, priority 1992, dated 1998).
Where two headings read alike, the source gives them in different places.

Tests used:
Gastric Motor of Dogs = assay: Effect (GMS activity) on gastric motor of dogs (strain gauge force transducer, gastric antrum, i.v.); assay type: in vivo, dogs (Beagles); conditions: for ED200: dogs; for GMS activity compared with starting compound: compared with the respective starting compounds (1) and (2); for gastrointestinal motor promoting effect: in vivo test of dogs, in words
Source text: Effect (GMS activity) on Gastric Motor of Dogs was studied.
Beagles having a body weigh of about 10 kg were subjected to laparotomy under pentobarbital anesthesia, and a strain gauge force transducer was attached to the gastric antrum of each of the beagles. The beagles were used for the experiment more than 2 weeks after the operation. A lead wire of the strain gauge force transducer was connected to a recorder through an amplifier and the recorder records gastric contractions. Signals from the amplifier were supplied to a signal processor (NEC Sanei).
Each of the test compounds was dissolved in ethanol, and lactobionic acid (1 mg/mg of test compound) was added thereto, followed by dilution with physiological saline. The resulting solution was intravenously given 15 minutes after termination of the natural interdigestive migrating contractions.
The area of gastric contractions induced by administration of the test compounds was measured by use of the signal processor. Taking the area at the time that the maximum contraction of the interdigestive migrating contractions was kept for 1 minute as 100%, the dosage inducing a contraction area of 200% (ED200 value) was determined from dosage action curves.
The action (GMS activity) of the above-mentioned compounds on the gastric motor of the dogs was measured.
The measurement was carried out in a manner similar to that of Experimental Example 1.

[1] = tested on: gastrointestinal peristaltic movement; conditions: literature; cited from earlier work
mice = assay: Acute toxicity test using mice (intravenous injection); assay type: in vivo; conditions: 100 mg/kg
[2] = Physicochemical nature (basicity, fat solubility)
[3] = Metabolite formation and distribution in dogs after i.v. lactobionate of compound (1); assay type: in vivo; conditions: dog, lactobionate of compound (1) 10 mg/kg, iv
Method: (§1) Namely, the present inventors found an active metabolite in vivo which promoted the gastrointestinal motor function (had GMS activity), when compound (1) or (2) of 14-membered ring macrolides having the structural formula shown in Table 1 below were given to the animals. Compound (1) was intravenously given to the dogs, followed by solvent extraction from the livers 30 minutes after administration, chromatography and preparative HPLC to 15 obtain two active metabolites, compounds (3) and (4). The present inventors were able to determine that the chemical structures of these compounds were 15- and 14-hydroxyl derivatives of compound (1), respectively. Compound (2) was treated similarly to obtain corresponding compounds (7) and (8).
The lactobionate of the compound (1) (10 mg/kg, iv) was injected into the fore-limb of the dog, and the blood, the liver, the bile and the urine were subjected to HP-20 chromatography. After extraction with ethyl acetate, active metabolites were determined. […] The liver was collected 30 minutes after administration, and an extracted concentrated solution thereof was subjected to HP-20 chromatography. The 80% v/v methanol/0.005N HCl fraction was extracted with ethyl acetate, and then, the extract was concentrated to obtain a powder. […]

gastrointestinal motor = assay: GMS activity of metabolites isolated from dogs; assay type: in vivo; conditions: metabolites after compound (1), dog 10 mg/kg iv
Method: as §1
First, the present inventors examined whether or not metabolites promoting the gastrointestinal motor (having GMS activity) were formed in vivo when the compound (1) or (2), the 6,9-hemiacetal-erythromycin derivative known in the art, was given to the animal.
The lactobionate of the compound (1) (10 mg/kg, iv) was injected into the fore-limb of the dog, and the blood, the liver, the bile and the urine were subjected to HP-20 chromatography. After extraction with ethyl acetate, active metabolites were determined. […] The liver was collected 30 minutes after administration, and an extracted concentrated solution thereof was subjected to HP-20 chromatography. […]

[4] = Canis lupus familiaris, iv, Table 4, Experimental Example 2, similar to Experimental Example 1, read-out: ED200
[5] = Canis lupus familiaris, iv, Table 3, dose inducing contraction area of 200%, i.v., as lactobionic acid solution, read-out: ED200

SMILES	GMS activity compared with starting compound (Gastric Motor of Dogs)	ED200 (Gastric Motor of Dogs; [5]) [µg/kg]	gastrointestinal motor promoting effect (Gastric Motor of Dogs)	basicity and fat solubility [2]	further results
CC1=C2O[C@](C)(C1)[C@H](O[C@@H]1O[C@H](C)C[C@H](N(C)C(C)C)[C@H]1O)[C@@H](C)[C@H](O[C@H]1C[C@@](C)(O)[C@@H](O)[C@H](C)O1)[C@@H](C)C(=O)O[C@H](C(C)O)[C@@](C)(O)[C@H](O)[C@H]2C (stereo partly shown) [Compound (5), 3'-O-demethyl-N-demethyl-14-hydroxy-N-isopropyl-8,9-anhydroerythromycin A 6,9-hemiacetal]	stronger GMS activity than the starting compound (1)	–	–	–	ED200 (Gastric Motor of Dogs; [4]): 0.21 µg/kg
CC[C@H]1OC(=O)[C@H](C)[C@@H](O[C@H]2C[C@@](C)(OC)[C@@H](O)[C@H](C)O2)[C@H](C)[C@@H](O[C@@H]2O[C@H](C)C[C@H](N(C)CC)[C@H]2O)[C@@]2(C)CC(C)=C(O2)[C@H](C)[C@@H](O)[C@]1(C)O [Compound (2), reference compound]	–	8	–	–	–
CC[C@H]1OC(=O)[C@H](C)[C@@H](O[C@H]2C[C@@](C)(OC)[C@@H](O)[C@H](C)O2)[C@H](C)[C@@H](O[C@@H]2O[C@H](C)C[C@H](N(C)C)[C@H]2O)[C@](C)(O)C[C@@H](C)C(=O)[C@H](C)[C@@H](O)[C@]1(C)O [ERM A, erythromycin A]	–	–	–	–	motilin-like action / GMS activity [1]: motilin-like action promoting the gastrointestinal peristaltic movement
CCN(C)[C@H]1C[C@@H](C)O[C@@H](O[C@@H]2[C@@H](C)[C@H](O[C@H]3C[C@@](C)(OC)[C@@H](O)[C@H](C)O3)[C@@H](C)C(=O)O[C@H](C(C)O)[C@@](C)(O)[C@H](O)[C@@H](C)C3=C(C)C[C@@]2(C)O3)[C@@H]1O (stereo partly shown) [lactobionate of the compound (8)]	–	–	–	–	death in acute toxicity test (mice): no case of death was observed
CC[C@H]1OC(=O)[C@H](C)[C@@H](O[C@H]2C[C@@](C)(O)[C@@H](O)[C@H](C)O2)[C@H](C)[C@@H](O[C@@H]2O[C@H](C)C[C@H](N(C)C(C)C)[C@H]2O)[C@@]2(C)CC(C)=C(O2)[C@H](C)[C@@H](O)[C@]1(C)O [Compound (6)]	stronger GMS activity than the starting compound (1)	–	–	–	ED200 (Gastric Motor of Dogs; [4]): 0.26 µg/kg
CCN(C)[C@H]1C[C@@H](C)O[C@@H](O[C@@H]2[C@@H](C)[C@H](O[C@H]3C[C@@](C)(OC)[C@@H](O)[C@H](C)O3)[C@@H](C)C(=O)O[C@H](CCO)[C@@](C)(O)[C@H](O)[C@@H](C)C3=C(C)C[C@@]2(C)O3)[C@@H]1O [Compound (7), N-demethyl-15-hydroxy-N-ethyl-8,9-anhydroerythromycin A 6,9-hemiacetal]	stronger GMS activity than the respective starting compounds	3.2	strong gastrointestinal motor promoting effect	basic fat-soluble properties	–
CCN(C)[C@H]1C[C@@H](C)O[C@@H](O[C@@H]2[C@@H](C)[C@H](O[C@H]3C[C@@](C)(OC)[C@@H](O)[C@H](C)O3)[C@@H](C)C(=O)O[C@H](C(C)O)[C@@](C)(O)[C@H](O)[C@@H](C)C3=C(C)C[C@@]2(C)O3)[C@@H]1O (stereo partly shown) [Compound (8), N-demethyl-14-hydroxy-N-ethyl-8,9-anhydroerythromycin A 6,9-hemiacetal]	stronger GMS activity than the respective starting compounds	1.8	strong gastrointestinal motor promoting effect	basic fat-soluble properties	–
CC[C@H]1OC(=O)[C@H](C)[C@@H](O[C@H]2C[C@@](C)(OC)[C@@H](O)[C@H](C)O2)[C@H](C)[C@@H](O[C@@H]2O[C@H](C)C[C@H](N(C)C(C)C)[C@H]2O)[C@@]2(C)CC(C)=C(O2)[C@H](C)[C@@H](O)[C@]1(C)O [Compound (1), reference compound]	–	0.9	–	–	ED200 (Gastric Motor of Dogs; Table 4, Experimental Example 2, similar to Experimental Example 1): 0.9 µg/kg; presence in blood, liver, bile and urine [3]: largely present in the blood
CO[C@]1(C)C[C@H](O[C@H]2[C@H](C)[C@@H](O[C@@H]3O[C@H](C)C[C@H](N(C)C(C)C)[C@H]3O)[C@@]3(C)CC(C)=C(O3)[C@H](C)[C@@H](O)[C@](C)(O)[C@@H](C(C)O)OC(=O)[C@@H]2C)O[C@@H](C)[C@@H]1O (stereo partly shown) [Compound (4), N-demethyl-14-hydroxy-N-isopropyl-8,9-anhydorerythromycin A 6,9-hemiacetal]	stronger GMS activity than the respective starting compounds	0.4	strong gastrointestinal motor promoting effect	basic fat-soluble properties	GMS activity of metabolites / fractions (gastrointestinal motor): active
CO[C@]1(C)C[C@H](O[C@H]2[C@H](C)[C@@H](O[C@@H]3O[C@H](C)C[C@H](N(C)C(C)C)[C@H]3O)[C@@]3(C)CC(C)=C(O3)[C@H](C)[C@@H](O)[C@](C)(O)[C@@H](CCO)OC(=O)[C@@H]2C)O[C@@H](C)[C@@H]1O [Compound (3), N-demethyl-15-hydroxy-N-isopropyl-8,9-anhydroerythromycin A 6,9-hemiacetal]	stronger GMS activity than the respective starting compounds	0.5	strong gastrointestinal motor promoting effect	basic fat-soluble properties	GMS activity of metabolites / fractions (gastrointestinal motor): active
